Measured values: ChEMBL document CHEMBL1201862, “PubChem BioAssay data set” (2004)
Counter-ions that a name gives are not always drawn. Activity calls are given as the source filed them.

What was measured:
[1] = biological target: T1, Neuropeptides B/W receptor type 1 (Homo sapiens, UniProt P48145); experiment: Fluorescence-based dose response cell-based high throughput screening assay to identify antagonists of the G-protein coupled receptor 7 (GPR7). [Related pubchem assays: 1952 (Screening assay (GPR7 antagonists).), 1880 (Summary AID.)]; type: functional
T1 sequence (P48145 whole entry): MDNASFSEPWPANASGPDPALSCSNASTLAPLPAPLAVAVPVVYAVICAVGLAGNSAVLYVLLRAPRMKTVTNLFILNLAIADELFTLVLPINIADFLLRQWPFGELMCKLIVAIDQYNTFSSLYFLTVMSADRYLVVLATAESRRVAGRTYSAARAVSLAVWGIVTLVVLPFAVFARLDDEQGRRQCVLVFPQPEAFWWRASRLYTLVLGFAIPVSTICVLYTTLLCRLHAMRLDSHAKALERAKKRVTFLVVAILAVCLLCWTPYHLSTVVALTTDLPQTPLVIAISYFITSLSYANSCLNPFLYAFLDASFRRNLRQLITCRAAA

[2] = biological target: Melanin-concentrating hormone receptor 1 (Homo sapiens, UniProt Q99705); experiment: Fluorescence-based counterscreen for antagonists of the G-protein coupled receptor 7 (GPR7): cell-based high throughput dose response assay to identify antagonists of the melanin-concentrating hormone receptor 1 (MCHR1).; type: functional
Sequence of Melanin-concentrating hormone receptor 1 (Q99705 whole entry): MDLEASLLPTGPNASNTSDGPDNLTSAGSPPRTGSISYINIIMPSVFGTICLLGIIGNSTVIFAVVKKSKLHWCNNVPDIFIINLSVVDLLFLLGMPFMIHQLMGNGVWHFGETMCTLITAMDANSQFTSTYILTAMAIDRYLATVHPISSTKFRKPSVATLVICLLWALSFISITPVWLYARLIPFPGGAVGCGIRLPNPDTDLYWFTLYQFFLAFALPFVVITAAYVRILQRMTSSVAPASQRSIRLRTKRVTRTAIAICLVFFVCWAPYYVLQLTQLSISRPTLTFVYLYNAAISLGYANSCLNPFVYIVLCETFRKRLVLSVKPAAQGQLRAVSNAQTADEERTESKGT

[3] = biological target: T2, Aspartyl aminopeptidase (Plasmodium falciparum 3D7, UniProt Q8I2J3)
T2 sequence (Q8I2J3 whole entry): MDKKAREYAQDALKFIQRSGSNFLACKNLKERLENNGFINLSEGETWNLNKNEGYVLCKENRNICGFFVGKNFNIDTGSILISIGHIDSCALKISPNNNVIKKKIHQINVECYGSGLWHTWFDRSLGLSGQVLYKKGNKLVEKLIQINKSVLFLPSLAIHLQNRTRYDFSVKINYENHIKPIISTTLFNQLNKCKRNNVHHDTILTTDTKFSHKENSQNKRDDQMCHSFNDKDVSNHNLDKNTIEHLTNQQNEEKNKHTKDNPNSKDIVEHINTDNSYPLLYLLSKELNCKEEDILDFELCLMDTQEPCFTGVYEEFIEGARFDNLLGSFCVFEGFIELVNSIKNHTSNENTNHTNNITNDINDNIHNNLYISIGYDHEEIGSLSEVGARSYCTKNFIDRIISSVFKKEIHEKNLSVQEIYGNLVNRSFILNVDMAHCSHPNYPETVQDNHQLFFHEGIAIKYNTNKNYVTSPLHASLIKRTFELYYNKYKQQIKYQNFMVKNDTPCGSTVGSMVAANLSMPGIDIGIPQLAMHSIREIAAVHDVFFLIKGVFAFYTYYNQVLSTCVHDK

[4] = biological target: Procathepsin L (Homo sapiens, UniProt P07711)
Sequence of Procathepsin L (P07711 whole entry): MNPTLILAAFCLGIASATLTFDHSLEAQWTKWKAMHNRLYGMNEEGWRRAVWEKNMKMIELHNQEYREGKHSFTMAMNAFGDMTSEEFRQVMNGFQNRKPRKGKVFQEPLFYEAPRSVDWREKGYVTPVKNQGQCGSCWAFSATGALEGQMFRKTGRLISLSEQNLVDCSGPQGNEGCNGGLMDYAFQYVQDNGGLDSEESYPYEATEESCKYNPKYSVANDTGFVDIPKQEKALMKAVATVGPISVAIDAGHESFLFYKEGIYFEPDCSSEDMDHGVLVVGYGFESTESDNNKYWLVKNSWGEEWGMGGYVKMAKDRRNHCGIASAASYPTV

[5] = biological target: Induced myeloid leukemia cell differentiation protein Mcl-1 (Homo sapiens, UniProt Q07820); type: functional
Sequence of Induced myeloid leukemia cell differentiation protein Mcl-1 (Q07820 whole entry): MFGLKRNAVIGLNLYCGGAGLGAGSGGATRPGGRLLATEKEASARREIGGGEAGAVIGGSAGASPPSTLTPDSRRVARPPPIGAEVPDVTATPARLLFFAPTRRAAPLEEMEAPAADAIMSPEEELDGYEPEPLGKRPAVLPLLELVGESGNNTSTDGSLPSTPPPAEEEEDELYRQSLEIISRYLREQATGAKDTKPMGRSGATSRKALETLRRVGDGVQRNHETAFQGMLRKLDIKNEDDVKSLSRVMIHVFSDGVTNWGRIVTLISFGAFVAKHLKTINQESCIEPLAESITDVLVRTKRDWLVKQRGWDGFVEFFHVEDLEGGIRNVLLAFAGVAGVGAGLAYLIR

[6] = system: BJ; experiment: cytotoxicity toward Ras-transformed BJeLR fibroblasts, dose response, cell-based, alamar blue fluorescence, cherrypicked samples (AID 2631); type: functional; conditions: Homo sapiens;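 also: confirmatory dose-response assay in RAS-dependent BJ fibroblasts engineered with TERT, LT and ST, with cytotoxicity read by fluorescence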
[7] = NIH-3T3 fibroblast cytotoxicity, dose response, cytotoxicity control, cell-based, fluorescence, Alamar Blue, secondary assay (AID 2327); type: functional;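 also: NIH-3T3 mouse fibroblasts cultured with fluconazole at 8 µg/mL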
[8] = inhibitors of firefly luciferase expression or activity, dose response, H4 neuroglioma cells, luminescence (AID 1990); type: functional, cell-based
[9] = system: HEK293; experiment: Fluorescence-based counterscreen for potentiators or agonists of NPY-Y2: cell-based high-throughput dose response assay to identify inhibitors of cyclic nucleotide gated ion channel (CNGC) activity. In this assay, the parental HEK293 cell line transfected with a cyclic-nucleotide gated ion channel (CNGC)-based cAMP sensor is used to measure inhibition of isoproterenol-induced CNGC activity by test compound.; type: functional; conditions: Homo sapiens;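 also: stimulus is 1 µM isoproterenol at EC100 plus PDE inhibitor Ro 20-1724 at 25 µM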
[10] = system: BJ; experiment: cytotoxicity toward BJ-TERT fibroblasts, dose response, cell-based, RAS-independent, luminescence (AID 1933); type: functional; conditions: Homo sapiens
[11] = biological target: T3, Neuropeptide Y receptor type 2 (Homo sapiens, UniProt P49146); experiment: Fluorescence-based cell-based high-throughput dose response assay for agonists of NPY-Y2. [Related pubchem assays: 1703 (Screening assay (CNGC inhibitors).), 1359 (Screening assay (NPY-Y2 potentiators or agonists).), 1304 (Screening assay (NPY-Y1 potentiators or agonists).), 1710 (Screening assay (NPY-Y2 agonists).), 1791 (Summary AID.)]; type: functional
T3 sequence (P49146 whole entry): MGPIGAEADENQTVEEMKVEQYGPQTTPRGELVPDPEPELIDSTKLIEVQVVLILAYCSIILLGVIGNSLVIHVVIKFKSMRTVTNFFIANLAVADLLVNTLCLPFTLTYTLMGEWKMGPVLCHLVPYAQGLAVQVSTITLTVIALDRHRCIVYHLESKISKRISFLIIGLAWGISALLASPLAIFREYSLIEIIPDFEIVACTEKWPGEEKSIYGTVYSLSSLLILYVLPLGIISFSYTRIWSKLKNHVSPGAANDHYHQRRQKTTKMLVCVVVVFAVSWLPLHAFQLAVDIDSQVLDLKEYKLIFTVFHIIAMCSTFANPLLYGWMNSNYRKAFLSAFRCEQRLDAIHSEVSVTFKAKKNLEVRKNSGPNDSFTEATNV

[12] = Luminescence Cell-Based Dose Response HTS to Identify Inhibitors of 5'UTR Stem-Loop Driven Prion Protein mRNA Translation in H4 Neuroglioblastoma Cells. [Related pubchem assays: 1827 (Project Summary), 1813 (Primary HTS)]; type: functional
[13] = system: BJ; experiment: cells; type: functional, cell-based; conditions: Homo sapiens
[14] = C. albicans growth with fluconazole, confirmation, fluorescence, retest (AID 2467); type: functional, cell-based
[15] = biological target: T4, Neuropeptide Y receptor type 1 (Homo sapiens, UniProt P25929); experiment: Fluorescence-based counterscreen for agonists of NPY-Y2: cell-based high-throughput dose response assay for agonists of NPY-Y1.; type: functional
T4 sequence (P25929 whole entry): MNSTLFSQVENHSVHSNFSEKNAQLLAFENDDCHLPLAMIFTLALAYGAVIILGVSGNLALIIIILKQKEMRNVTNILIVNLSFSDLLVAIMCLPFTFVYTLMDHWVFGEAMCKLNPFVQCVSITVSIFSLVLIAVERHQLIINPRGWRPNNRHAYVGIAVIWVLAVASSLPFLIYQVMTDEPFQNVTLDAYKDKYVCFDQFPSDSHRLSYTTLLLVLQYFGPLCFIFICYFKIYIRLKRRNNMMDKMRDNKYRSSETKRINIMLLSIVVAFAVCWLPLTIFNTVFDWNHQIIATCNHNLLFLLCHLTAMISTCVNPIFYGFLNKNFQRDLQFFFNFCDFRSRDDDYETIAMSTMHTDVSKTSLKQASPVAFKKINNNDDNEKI

[16] = system: BJ; experiment: cytotoxicity toward BJ-TERT-LT-ST fibroblasts, dose response, cell-based, RAS-independent, luminescence (AID 1935); type: functional; conditions: Homo sapiens;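 also: BJ fibroblasts immortalized with TERT plus LT and ST oncogenes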
[17] = cytotoxicity toward DRD oncogenic fibroblasts, dose response, cell-based, non-viral oncogenic, luminescence (AID 1934); type: functional; conditions: Homo sapiens
[18] = cytotoxicity in HEK-293T cells, dose response, cytotoxicity control for TCR NF-kB inhibitor project, luminescence, T-cell screen hits (AID 489026); type: functional, cell-based;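 also: cells exposed to compound about 14 hours before the viability readout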
[19] = A Cell Based Secondary Assay To Explore Cytotoxicity of Compounds that Sensitize Mycobacterium Tuberculosis to Beta-Lactam Antibiotics.; type: functional
[20] = system: HeLa; experiment: HeLa cell cytotoxicity, dose response, cytotoxicity control, 24 h, cherry-picked samples (AID 504726); type: functional, cell-based; conditions: Homo sapiens;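 also: potency for cytotoxicity as loss of luminescence signal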
[21] = LGR2 antagonists, dose response, cell-based, HEK293, CRE-luciferase reporter, cherry pick, set 2 (AID 743343); type: functional;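 also: transfected cells were stimulated with diluted bursicon conditioned medium after compound addition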
[22] = MC4R antagonists, dose response, counter-screen for LGR2 antagonist project, cell-based, plate reader, cherry pick (AID 743444); type: functional;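 also: transfected HEK 293 cells stimulated with alpha-MSH peptide; potency of inhibitors of the alpha-MSH evoked signal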
[23] = system: Vero; experiment: Vero cell cytotoxicity, cytotoxicity control for flavivirus capping enzyme inhibitors (AID 588742); type: functional; conditions: Chlorocebus sabaeus
[24] = biological target: Genome polyprotein (dengue virus type 2, UniProt P29990); experiment: Dengue-2 NS5 methyltransferase inhibitors, primary screen, biochemical, confirmation dose response (AID 588689); type: functional
Sequence of Genome polyprotein (P29990 2492-3391 limits assumed): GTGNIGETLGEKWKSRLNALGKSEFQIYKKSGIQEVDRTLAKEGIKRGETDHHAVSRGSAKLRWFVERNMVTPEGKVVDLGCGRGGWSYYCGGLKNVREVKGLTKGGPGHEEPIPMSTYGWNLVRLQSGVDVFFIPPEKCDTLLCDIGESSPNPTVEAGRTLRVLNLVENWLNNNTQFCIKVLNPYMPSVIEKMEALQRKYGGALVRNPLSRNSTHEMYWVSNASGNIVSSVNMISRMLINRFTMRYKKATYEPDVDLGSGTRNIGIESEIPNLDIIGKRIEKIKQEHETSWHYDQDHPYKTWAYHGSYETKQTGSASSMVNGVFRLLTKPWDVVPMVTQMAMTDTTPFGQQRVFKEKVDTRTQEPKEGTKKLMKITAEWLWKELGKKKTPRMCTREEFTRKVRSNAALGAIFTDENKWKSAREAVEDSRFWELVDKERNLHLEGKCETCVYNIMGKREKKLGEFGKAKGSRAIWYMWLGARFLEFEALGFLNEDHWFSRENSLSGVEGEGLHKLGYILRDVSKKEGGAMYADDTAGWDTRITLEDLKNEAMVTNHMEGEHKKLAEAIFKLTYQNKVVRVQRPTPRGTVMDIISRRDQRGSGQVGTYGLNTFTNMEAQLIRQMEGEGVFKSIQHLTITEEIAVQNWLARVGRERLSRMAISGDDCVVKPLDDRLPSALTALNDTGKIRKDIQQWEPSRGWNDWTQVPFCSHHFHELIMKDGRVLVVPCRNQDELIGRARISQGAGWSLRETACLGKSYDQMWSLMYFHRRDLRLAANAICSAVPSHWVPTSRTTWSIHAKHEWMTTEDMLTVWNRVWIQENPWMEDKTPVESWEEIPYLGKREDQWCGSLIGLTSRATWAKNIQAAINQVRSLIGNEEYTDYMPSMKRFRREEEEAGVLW

[25] = biological target: T5, Polyadenylate-binding protein 1 (Homo sapiens, UniProt P11940); experiment: PABP1 MLLE–PAM2 interaction inhibitors, dose response, miRNA deadenylation inhibitor project, biochemical, fluorescence polarization, Cy5-PAM2 peptide, secondary (AID 602260); type: functional; conditions: read-out: IC50_Mean
T5 sequence (P11940 whole entry): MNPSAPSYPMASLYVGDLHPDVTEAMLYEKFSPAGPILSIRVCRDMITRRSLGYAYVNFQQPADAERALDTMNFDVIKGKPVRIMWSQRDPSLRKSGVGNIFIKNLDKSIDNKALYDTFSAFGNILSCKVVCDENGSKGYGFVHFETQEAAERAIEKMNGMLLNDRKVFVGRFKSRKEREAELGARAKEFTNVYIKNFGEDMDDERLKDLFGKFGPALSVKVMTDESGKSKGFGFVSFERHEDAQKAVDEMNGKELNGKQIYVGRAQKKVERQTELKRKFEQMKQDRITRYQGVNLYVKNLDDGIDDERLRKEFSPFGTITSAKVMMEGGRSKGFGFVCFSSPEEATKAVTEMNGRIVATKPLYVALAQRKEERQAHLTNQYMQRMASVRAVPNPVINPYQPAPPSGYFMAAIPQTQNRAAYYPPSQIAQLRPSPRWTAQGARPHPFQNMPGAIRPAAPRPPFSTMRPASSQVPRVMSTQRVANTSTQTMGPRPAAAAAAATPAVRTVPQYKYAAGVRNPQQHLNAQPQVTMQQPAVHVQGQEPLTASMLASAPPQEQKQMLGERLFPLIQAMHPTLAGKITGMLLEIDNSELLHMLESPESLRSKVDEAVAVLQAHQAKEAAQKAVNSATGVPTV

[26] = biological target: T5, Polyadenylate-binding protein 1; experiment: PABP1 MLLE–PAM2 binding inhibitor potency, dose response, biochemical, fluorescence polarization, FITC-PAM2 peptide (AID 602259); type: functional; conditions: read-out: IC50_Mean
[27] = biological target: Large T antigen (Simian virus 40, UniProt P03070); type: functional, Betapolyomavirus macacae;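 also: Confirmatory-stage PubChem screen for compounds that inhibit SV40 T antigen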
Sequence of Large T antigen (P03070 whole entry): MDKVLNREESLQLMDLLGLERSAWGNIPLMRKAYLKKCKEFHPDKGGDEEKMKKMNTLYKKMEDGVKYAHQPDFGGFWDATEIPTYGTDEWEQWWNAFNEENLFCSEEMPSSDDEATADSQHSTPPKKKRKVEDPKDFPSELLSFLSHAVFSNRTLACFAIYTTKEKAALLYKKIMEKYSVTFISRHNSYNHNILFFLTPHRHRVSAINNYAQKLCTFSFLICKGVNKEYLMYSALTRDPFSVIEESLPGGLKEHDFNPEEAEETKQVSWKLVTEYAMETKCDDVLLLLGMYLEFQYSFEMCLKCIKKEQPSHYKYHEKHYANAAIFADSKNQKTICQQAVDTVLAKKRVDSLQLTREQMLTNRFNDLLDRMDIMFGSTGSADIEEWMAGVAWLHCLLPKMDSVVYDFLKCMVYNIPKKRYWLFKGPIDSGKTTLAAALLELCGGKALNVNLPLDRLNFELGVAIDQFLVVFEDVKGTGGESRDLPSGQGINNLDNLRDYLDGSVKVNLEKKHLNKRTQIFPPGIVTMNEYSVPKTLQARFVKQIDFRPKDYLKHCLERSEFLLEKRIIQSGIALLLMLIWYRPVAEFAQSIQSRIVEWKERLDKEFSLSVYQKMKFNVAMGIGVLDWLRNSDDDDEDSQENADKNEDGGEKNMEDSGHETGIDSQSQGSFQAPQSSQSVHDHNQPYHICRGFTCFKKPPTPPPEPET

[28] = growth suppression of PTEN-null colon cells, dose response, cell-based, HCT116 PTEN knockout (AID 1047); type: functional;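 also: HCT116 colon tumor cells with PTEN knocked out; cells exposed to compound for 60 hours before readout; potency for loss of cell viability measured by luminescence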
[29] = growth suppression of beta-catenin-knockout colon cells, dose response, cell-based, HCT116, human colon tumor (AID 1045); type: functional;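 also: HCT116 colon tumor cells with beta catenin knocked out; cells exposed to compound for 60 hours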
[30] = HEp-2 cell cytotoxicity, dose response, cytotoxicity control for RSV inhibitor project, HTS (AID 2410); type: functional; conditions: human respiratory syncytial virus
[31] = system: Vero; experiment: cells; type: functional, cell-based; conditions: Chlorocebus sabaeus
[32] = cells
[33] = biological target: FAD-linked sulfhydryl oxidase ALR (Homo sapiens, UniProt P55789); experiment: inhibitors of human ALR sulfhydryl oxidase, dose response, biochemical, H2O2 detection, luminescence, cherry-pick (AID 493248)
Sequence of FAD-linked sulfhydryl oxidase ALR (P55789 whole entry): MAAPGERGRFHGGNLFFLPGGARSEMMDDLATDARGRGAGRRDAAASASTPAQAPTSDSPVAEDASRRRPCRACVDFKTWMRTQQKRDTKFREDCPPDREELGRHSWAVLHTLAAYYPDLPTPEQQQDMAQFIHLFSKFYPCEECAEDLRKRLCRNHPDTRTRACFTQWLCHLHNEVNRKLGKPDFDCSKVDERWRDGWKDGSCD

Q: With CCOC(=O)COc1c(Cl)cc(C2NC(S)=NC(c3ccccc3)=C2C(C)=O)cc1OC (centres undefined) as the compound, how does the IC50 [1] read?
A: The IC50 was > 43.8 µM (not active).

Q: What about the IC50 [2] of the same compound?
A: Its IC50 is > 43.8 µM (not active).

Q: Which results are given for COc1ccc(C2=CC(=O)C=CC2=O)cc1?
A: IC50 [3]: 6.85 µM (active); IC50 [4]: > 59.6 µM (not active); IC50 [5]: 5.43 µM (active); EC50 [6]: > 133 µM (inactive)

Q: Which results are given for CN(C)c1ccc(-[n+]2c(-c3ccccc3)cc(-c3ccccc3)cc2-c2ccccc2)cc1.[O-][Cl+3]([O-])([O-])[O-]?
A: EC50 [7]: 4.87 µM (active); EC50 [8]: 8.27 µM (active); EC50 [9]: > 35.4 µM (not active); EC50 [10]: 2.81 µM (active); EC50 [11]: > 35.4 µM (not active); EC50 [12]: > 120 µM (not active); EC50 [13]: 3.14 µM (active); EC50 [14]: 0.132 µM (active); EC50 [15]: 24.4 µM (not active); EC50 [16]: 3 µM (inconclusive); EC50 [17]: 3.14 µM (active); IC50 [18]: 55.4 µM (inactive)

Q: With O=C(c1ccccc1)N1CCC(CC2CC(c3cccc(Br)c3)=NO2)(C(=O)NCC2CCCCC2)CC1 (centres undefined) as the compound, how does the CC50 [19] read?
A: The CC50 was > 40 µM (active).

Q: For Cc1noc(C)c1CSCC(=O)Nc1nc2c(F)cc(F)cc2s1, which AC50 [20] is on record?
A: The AC50 was > 350 µM (inactive).

Q: With Cc1ccc(C(=O)n2nc(-n3cccc3)c3c(C)cc(C)nc32)cc1 as the compound, how does the EC50 [9] read?
A: Its EC50 is > 35.4 µM (not active).

Q: And the EC50 [11]?
A: Its EC50 is > 35.4 µM (not active).

Q: And the EC50 [15]?
A: Its EC50 is > 35.4 µM (not active).

Q: And the AC50 [21]?
A: The AC50 was 13.9 µM (active).

Q: What about the AC50 [22] of the same compound?
A: The AC50 was 1.22 µM (active).

Q: Which EC50 [7] does the source give for COc1cc(C(=S)N2CCN(c3ccccc3Cl)CC2)cc(O)c1O here?
A: Its EC50 is > 150 µM (inactive).

Q: What about the EC50 [9] of the same compound?
A: Its EC50 is > 35.4 µM (not active).

Q: And the EC50 [11]?
A: The EC50 was > 35.4 µM (not active).

Q: What about the EC50 [14] of the same compound?
A: The EC50 was > 38 µM (not active).

Q: What about the EC50 [15] of the same compound?
A: The EC50 was > 35.4 µM (not active).

Q: And the CC50 [23]?
A: Its CC50 is > 40 µM (active).

Q: And the IC50 [24]?
A: The IC50 was > 100 µM (active).

Q: And the IC50 [25]?
A: Its IC50 is > 66 µM (inactive).

Q: What about the IC50 [26] of the same compound?
A: Its IC50 is > 66 µM (inactive).

Q: Which results are given for Cc1csc(NC(=O)NC2(C(F)(F)F)Oc3ccccc3O2)n1?
A: IC50 [3]: 2.02 µM (active); IC50 [4]: > 59.6 µM (not active); IC50 [27]: 13.3 µM (active); EC50 [28]: 24.8 µM (active); EC50 [29]: 21.9 µM (active)

Q: Which CC50 [30] does the source give for Cc1[nH]c(C)c(S(=O)(=O)N2CCN(c3cccc(C(F)(F)F)c3)CC2)c1C(=O)N1CCCCC1 here?
A: Its CC50 is 17.6 µM (active).

Q: And the IC50 [31]?
A: The IC50 was 22.4 µM (active).

Q: And the IC50 [32]?
A: The IC50 was 23.3 µM (active).

Q: For CCC(C)(C(=O)NC1CCCCC1)N(Cc1ccco1)C(=O)c1ccc2c(c1)OCO2 (centres undefined), which IC50 [1] is on record?
A: Its IC50 is > 43.8 µM (not active).

Q: And the IC50 [2]?
A: Its IC50 is > 43.8 µM (not active).

Q: Which CC50 [30] does the source give for CCC(=O)NC(=S)Nc1ccc(NC(=O)COc2ccc(Cl)c(C)c2)cc1 here?
A: The CC50 was > 50 µM (active).

Q: What about the IC50 [32] of the same compound?
A: Its IC50 is 39 µM (active).

Q: With NCCc1ccc(O)c(O)c1 [DOPAMINE HYDROCHLORIDE] as the compound, how does the IC50 [3] read?
A: The IC50 was 1.98 µM (active).

Q: What about the IC50 [4] of the same compound?
A: Its IC50 is > 59.6 µM (not active).

Q: And the AC50 [33]?
A: The AC50 was 1.42 µM (active).
